Test results from patent US10351522B2, “Sulfonamide derivative and pharmaceutically acceptable acid addition salt thereof” (UNIVERSITY OF TSUKUBA, priority 2015, dated 2019).
Read-outs that look alike come from different tables or passages of the source.

Legend:
human OX1R = molecular target: T1, human OX1R (Homo sapiens, UniProt O43613); assay: Agonist activity against OX1R: intracellular calcium (Fura-2AM, FDSS7000) in CHOOX1R cells; format: cell-based; conditions: for Emax at 0.1 µM / Emax at 1 µM / Emax at 10 µM: read-out: Response (%) OX1R
T1 construct: expressed in transfected cells; host or cells: CHO (Chinese hamster ovary) cells, line CHOOX1R, co-expressing NFAT-luciferase
T1 sequence (O43613 1-425): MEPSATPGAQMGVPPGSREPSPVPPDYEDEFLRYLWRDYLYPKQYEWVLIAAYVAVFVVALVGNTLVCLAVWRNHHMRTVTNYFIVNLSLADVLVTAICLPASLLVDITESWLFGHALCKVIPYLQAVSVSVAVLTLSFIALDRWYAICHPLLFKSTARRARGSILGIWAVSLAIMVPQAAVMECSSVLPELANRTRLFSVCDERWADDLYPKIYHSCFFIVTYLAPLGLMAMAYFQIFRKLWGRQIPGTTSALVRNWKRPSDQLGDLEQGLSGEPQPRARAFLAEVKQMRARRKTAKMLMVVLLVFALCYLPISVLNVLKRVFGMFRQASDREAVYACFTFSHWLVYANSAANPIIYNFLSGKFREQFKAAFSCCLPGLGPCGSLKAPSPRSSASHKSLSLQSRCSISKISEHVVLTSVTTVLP
Method in brief: (§1)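 CHO cells stably expressing human OX1R or OX2R (plus NFAT-luciferase) were loaded with 5 μM Fura-2AM for 60 min, then given compound at 10^−7 to 10^−5 M final (1% DMSO). Calcium change read as 340/380 nm excitation fluorescence ratio; response expressed as % of orexin-A maximal activity at 10, 1.0 and 0.1 μM.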

human OX2R = molecular target: T2, human OX2R (Homo sapiens, UniProt O43614); assay: Agonist activity against OX2R: intracellular calcium (Fura-2AM, FDSS7000) in CHOOX2R cells; format: cell-based; conditions: relative to orexin-A as full agonist (100%)
T2 construct: expressed in transfected cells; host or cells: CHO (Chinese hamster ovary) cells, line CHOOX2R, co-expressing NFAT-luciferase
T2 sequence (O43614 1-444): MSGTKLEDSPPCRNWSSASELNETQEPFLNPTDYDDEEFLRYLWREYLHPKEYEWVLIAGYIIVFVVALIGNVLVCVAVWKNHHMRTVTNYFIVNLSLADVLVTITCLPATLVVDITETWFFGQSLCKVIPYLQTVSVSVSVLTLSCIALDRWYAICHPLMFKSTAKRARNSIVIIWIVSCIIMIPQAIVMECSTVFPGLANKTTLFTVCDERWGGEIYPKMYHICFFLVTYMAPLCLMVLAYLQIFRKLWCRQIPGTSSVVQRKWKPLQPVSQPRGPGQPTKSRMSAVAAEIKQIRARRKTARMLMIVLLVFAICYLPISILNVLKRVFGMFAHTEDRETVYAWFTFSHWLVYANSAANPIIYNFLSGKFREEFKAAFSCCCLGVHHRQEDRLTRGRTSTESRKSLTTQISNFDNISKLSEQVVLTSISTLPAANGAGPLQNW
Method in brief: as §1

[1] = test compound 0.1 μM, relative to orexin-A as full agonist (100%)
[2] = test compound 1.0 μM, relative to orexin-A as full agonist (100%)
[3] = test compound 10 μM, relative to orexin-A as full agonist (100%)
[4] = 0.1 μM test compound, relative to orexin-A as full agonist (100%)
[5] = 1.0 μM test compound, relative to orexin-A as full agonist (100%)
[6] = 10 μM test compound, relative to orexin-A as full agonist (100%)

| Response (%) OX2R (human OX2R; test compound 0.1 μM) [%] | Response (%) OX2R (human OX2R; test compound 1.0 μM) [%] | Response (%) OX2R (human OX2R; test compound 10 μM) [%] | Response (%) OX1R (human OX1R; [1]) [%] | Response (%) OX1R (human OX1R; [2]) [%] | Response (%) OX1R (human OX1R; [3]) [%] | Response (%) OX1R (human OX1R; [4]) [%] | Response (%) OX1R (human OX1R; [5]) [%] | Response (%) OX1R (human OX1R; [6]) [%] | Response (%) OX2R (human OX2R; 0.1 μM test compound) [%] | Response (%) OX2R (human OX2R; 1.0 μM test compound) [%] | Response (%) OX2R (human OX2R; 10 μM test compound) [%] | SMILES | other results |
| --- | --- | --- | --- | --- | --- | --- | --- | --- | --- | --- | --- | --- | --- |
| 16 | 77 | 85 | – | – | – | – | – | – | – | – | – | COc1ccc(-c2cccc(C(=O)N(C)C)c2)cc1S(=O)(=O)Nc1cccc(N2CCN(C(=O)c3cccc(C)c3)C2)c1 [Example 93, 4′-methoxy-N,N-dimethyl-3′-(N-(3-(3-(3-methylbenzoyl)imidazolidin-1-yl)phenyl)sulfamoyl)-[1,1′-biphenyl]-3-carboxamide] | Emax at 0.1 µM (human OX1R; [1]): 10%; Emax at 1 µM (human OX1R; [2]): 9%; Emax at 10 µM (human OX1R; [3]): 20% |
| 7 | 9 | 80 | <5 | <5 | <5 | – | – | – | – | – | – | COc1ccc(C(=O)NCC(C)(C)CN(C)C)cc1S(=O)(=O)Nc1cccc(NC(=O)Nc2cccc(N(C)C)c2)c1 [Example 107] | – |
| – | – | – | – | – | – | <5 | <5 | 13 | <5 | 9 | 41 | COc1ccc(-c2cccc(C(=O)N(C)C)c2)cc1S(=O)(=O)Nc1cccc(NC(=O)c2ccc(C)cc2)c1 [Example 17] | – |
| 11 | 36 | 71 | 9 | 8 | 9 | – | – | – | – | – | – | CN(C)C(=O)c1cccc(-c2ccc(Cl)c(S(=O)(=O)Nc3cccc(NC(=O)Nc4cccc(N(C)C)c4)c3)c2)c1 [Example 118] | – |
| 101 | 76 | 75 | 9 | 13 | 84 | – | – | – | – | – | – | COc1ccc(-c2cccc(C(=O)N(C)C)c2)cc1S(=O)(=O)Nc1cccc(N2CCCN(c3cccc(N(C)C)c3)C2=O)c1 [Example 134] | – |
| 38 | 86 | 109 | <5 | <5 | <5 | – | – | – | – | – | – | CCN(Cc1ccccc1)C(=O)c1ccc(OC)c(S(=O)(=O)Nc2cccc(NC(=O)Nc3ccc(N(C)C)cc3)c2)c1 [Example 110] | – |
| – | – | – | – | – | – | <5 | <5 | 32 | 21 | 88 | 97 | COc1ccc(-c2cccc(C(=O)N(C)C)c2)cc1S(=O)(=O)Nc1cccc(NCc2cccc(C)c2)c1 [Example 25] | – |
| – | – | – | – | – | – | <5 | <5 | <5 | <5 | 52 | 95 | COc1ccc(-c2cccc(C(=O)N(C)C)c2)cc1S(=O)(=O)Nc1cccc(Nc2ccc(C(=O)N(C)C)cc2)c1 [Example 34] | – |
| – | – | – | – | – | – | 6 | 8 | 9 | 15 | 83 | 103 | COc1ccc(-c2cccc(C(=O)N(C)C)c2)cc1S(=O)(=O)Nc1cccc(NC(=O)Nc2cccs2)c1 [Example 67] | – |
| – | – | – | – | – | – | <5 | 24 | 70 | 90 | 126 | 92 | COc1ccc(-c2cccc(C(=O)N(C)C)c2)cc1S(=O)(=O)Nc1cccc(NCc2ccc(C)cc2)c1 [Example 27] | – |
| – | – | – | – | – | – | 9 | 9 | 7 | 8 | 55 | 66 | COc1ccc(-c2cccc(C(=O)N(C)C)c2)cc1S(=O)(=O)Nc1cccc(NC(=O)Nc2cccc(N)c2)c1 [Example 63] | – |
| – | – | – | – | – | – | <5 | <5 | <5 | <5 | 10 | 58 | COc1ccc(C(=O)Nc2cccc(NS(=O)(=O)c3cc(-c4cccc(C(=O)N(C)C)c4)ccc3OC)c2)cc1 [Example 19] | – |
| – | – | – | – | – | – | 6 | <5 | 10 | 106 | 97 | 113 | COc1ccc(-c2cccc(C(=O)N(C)C)c2)cc1S(=O)(=O)Nc1cccc(NC(=O)Nc2ccc(N(C)C)nc2)c1 [Example 71] | – |
| – | – | – | – | – | – | <5 | 20 | 55 | 93 | 90 | 89 | COc1ccc(-c2cccc(C(=O)N(C)C)c2)cc1S(=O)(=O)Nc1cccc(NC(=S)Nc2cccc(C)c2)c1 [Example 76] | – |
| – | – | – | – | – | – | <5 | <5 | <5 | <5 | 18 | 74 | COc1ccc(-c2cccc(C(=O)N(C)C)c2)cc1S(=O)(=O)Nc1cccc(NC(=O)/C=C/c2ccoc2)c1 [Example 14] | – |
| – | – | – | – | – | – | <5 | <5 | <5 | <5 | 35 | 63 | COc1ccc(-c2cccc(C(=O)N(C)C)c2)cc1S(=O)(=O)Nc1cccc(Nc2cccc(C(F)(F)F)c2)c1 [Example 35] | – |
| – | – | – | – | – | – | 5 | 6 | 11 | 14 | 80 | 98 | COc1ccc(-c2cccc(C(=O)N(C)C)c2)cc1S(=O)(=O)Nc1cccc(NC(=O)c2cccc3ccccc23)c1 [Example 10] | – |
| – | – | – | – | – | – | <5 | <5 | <5 | 82 | 97 | 100 | COC(=O)c1cccc(NC(=O)Nc2cccc(NS(=O)(=O)c3cc(-c4cccc(C(=O)N(C)C)c4)ccc3OC)c2)c1 [Example 45] | – |
| – | – | – | – | – | – | 9 | 8 | 13 | 6 | 7 | 9 | COc1ccc(-c2cccc(C(=O)N(C)C)c2)cc1S(=O)(=O)Nc1cccc(NC(=O)Nc2cccc(NC(=O)OC(C)(C)C)c2)c1 [Example 62] | – |
| <5 | 16 | 44 | <5 | <5 | <5 | – | – | – | – | – | – | Cc1ccc(-c2cccc(C(=O)N(C)C)c2)cc1S(=O)(=O)Nc1cccc(NC(=O)Nc2cccc(N(C)C)c2)c1 [Example 117] | – |
| 7 | 79 | 99 | 7 | 6 | 7 | – | – | – | – | – | – | COc1ccc(C(=O)NCCCNC(=O)OC(C)(C)C)cc1S(=O)(=O)Nc1cccc(NC(=O)Nc2cccc(N(C)C)c2)c1 [Example 104] | – |
| <5 | <5 | 11 | <5 | <5 | <5 | – | – | – | – | – | – | COc1ccc(-c2cccc(C(=O)N(C)C)c2)cc1S(=O)(=O)Nc1cccc(NS(=O)(=O)c2cccc(Br)c2)c1 [Example 86] | – |

| SMILES | Response (%) OX2R (human OX2R; test compound 0.1 μM) [%] | Response (%) OX2R (human OX2R; test compound 1.0 μM) [%] | Response (%) OX2R (human OX2R; test compound 10 μM) [%] | Response (%) OX1R (human OX1R; [1]) [%] | Response (%) OX1R (human OX1R; [2]) [%] | Response (%) OX1R (human OX1R; [3]) [%] | Response (%) OX1R (human OX1R; [4]) [%] | Response (%) OX1R (human OX1R; [5]) [%] | Response (%) OX1R (human OX1R; [6]) [%] | Response (%) OX2R (human OX2R; 0.1 μM test compound) [%] | Response (%) OX2R (human OX2R; 1.0 μM test compound) [%] | Response (%) OX2R (human OX2R; 10 μM test compound) [%] | other results |
| --- | --- | --- | --- | --- | --- | --- | --- | --- | --- | --- | --- | --- | --- |
| COc1ccc(-c2cccc(C(=O)N(C)C)c2)cc1S(=O)(=O)Nc1cccc(NC(=O)N(C)c2cccc(N(C)C)c2)c1 [Example 127, 3′-(N-(3-(3-(3-(dimethylamino)phenyl)-3-methylureido)phenyl)sulfamoyl)-4′-methoxy-N,N-dimethyl-[1,1′-biphenyl]-3-carboxamide] | 106 | 90 | 73 | – | – | – | – | – | – | – | – | – | Emax at 0.1 µM (human OX1R): < 5%; Emax at 1 µM (human OX1R): 7%; Emax at 10 µM (human OX1R): 56% |
